As usually defined, the solubility (kinetic) is solubility judged after dilution from a stock solution rather than from solid.

Each structure is given as a SMILES string. ≈ marks a conversion by molar mass, not a printed value.

This is an account of results in PubChem BioAssay AID1996.

The conditions of the data set: buffer; pH 7.4; 200.0 µM.
`CCOc1nc2ccccc2cc1/C=C/C(=O)O` gave a solubility (kinetic) of 13.1 µg/mL (≈ 53.9 µM).
Under `Cc1ccc(-n2c(C)c(C)c3c(NCCCO)ncnc32)cc1` stands over 46.6 µg/mL; under `CC(=O)c1csc(COc2cc(Cl)cc(Cl)c2)n1`, under 0.6 µg/mL; under `O=C(NC(=S)NCCO)c1sc2ccccc2c1Cl`, 1.8 µg/mL (≈ 5.72 µM).
Under `COc1ccccc1CC(=O)NC1CCN(Cc2ccccc2)CC1` stands over 50.8 µg/mL.
For `CSc1cccc(NC(=S)NC(=O)CCc2ccccc2)c1` the value was 0.7 µg/mL (≈ 2.12 µM); for `CSc1ccc(S(=O)(=O)Nc2ccc3c(c2)NC(=O)CC3)cc1`, 8 µg/mL (≈ 23 µM).
`COC(=O)C1=C(C)N(Cc2ccccc2)C(=O)/C1=C\c1ccco1` came in with a solubility (kinetic) of 3.7 µg/mL (≈ 11.4 µM).
Under `Cc1ccc(C(=O)N(CN2CCCC2=O)c2ccccc2)cc1` stands over 46.3 µg/mL; under `O=C(NCc1ccccc1)N1CCCC1`, over 30.6 µg/mL.
For `CCOCc1[nH]c(=S)[nH]c(=O)c1Cc1ccc(OC(C)C)cc1` the value was over 50.2 µg/mL; for `[Br-].c1ccc(-c2c[n+]3c(n2-c2ccccc2)SCC3)cc1`, over 53.9 µg/mL; for `Cc1onc(-c2ccccc2Cl)c1C(=O)N1CCN(C=O)CC1`, over 50.1 µg/mL.
For `C=CCNC(=O)CN1N=C(c2ccc(C)cc2)CCC1=O` the value was over 42.8 µg/mL.
The compound `CC(C)NC(=O)CCCc1c[nH]c2ccccc12` had a solubility (kinetic) of over 36.7 µg/mL.
`CC1CC2(CCCC2)Nc2ccc(F)cc21.Cl` (centres undefined) returned a solubility (kinetic) of 0.7 µg/mL.
Under `CNC(=O)/C(C#N)=C/c1c(N2CCN(C)CC2)nc2c(C)cccn2c1=O` stands over 55 µg/mL.
`CC(C)c1nc2sc3c(=O)[nH]c(=S)[nH]c3c2c2c1CCCC2`: the kinetic solubility came out at 45.9 µg/mL (≈ 138 µM).
`O=C(CCCOc1ccccc1)NC(=S)Nc1ccccc1` yielded a kinetic solubility of 1.8 µg/mL (≈ 5.73 µM).
Compound `COc1ccc(NC(=O)c2ccc3ncsc3c2)cc1` yielded a solubility (kinetic) of 1.3 µg/mL (≈ 4.57 µM).
For `CCC(C)[C@H](NC(=O)NCCC1=CCCCC1)C(=O)OC` (some centres undefined) the value was over 44.5 µg/mL; for `C=CCC(=O)N1CCCC(C(=O)c2ccc(Cl)cc2)C1` (centres undefined), 42.5 µg/mL (≈ 146 µM).
Under `CC(=O)Nc1sc(-c2ccc(Cl)cc2)nc1-c1ccccc1` stands under 0.4 µg/mL; under `COc1cccc(N2C(=O)/C(=C/c3ccc(C)o3)C(=O)NC2=S)c1`, over 51.4 µg/mL.
Under `Cc1ccccc1C1NC(=S)NC2=C1C(=O)CCC2` (centres undefined) stands over 40.9 µg/mL; under `Cc1ccnc(NC2CCCCC2)c1`, 25.3 µg/mL (≈ 133 µM).
As to `CC(=O)Nc1ccc(/C=C/c2nc3ccccc3[nH]c2=O)cc1`, the kinetic solubility is 27 µg/mL (≈ 88.4 µM).
`CC(C)(C)c1cc(NC(=O)Nc2ccc(Cl)cc2Cl)no1`: the solubility (kinetic) is under 0.2 µg/mL.
Consider `COc1ccc(CCC(C)NCc2cccc(Br)c2)cc1` (centres undefined), for which the solubility (kinetic) turned out to be 34.1 µg/mL (≈ 97.9 µM).
For `CCOC(=O)c1c(C)[nH]c(-c2csc(C)n2)c1C` the value was 27.5 µg/mL (≈ 104 µM).
For `Cc1cc(C)c(OCCCCCn2ccnc2)c(C)c1` the value was over 40.9 µg/mL; for `C=CCN(c1ccccc1)S(=O)(=O)c1cccc2cccnc12`, 34.9 µg/mL (≈ 108 µM).
For `COC(=O)c1cc(S(=O)(=O)NCc2cccs2)c[nH]1` the value was over 45.1 µg/mL; for `CC1(C)C(C(=O)N2CCN(C(=O)c3ccccc3)CC2)C1(C)C`, over 47.2 µg/mL; for `N#CCN1C(=O)NC2(CCCc3sccc32)C1=O` (centres undefined), over 39.2 µg/mL.
In turn, `O=c1[nH][nH]c2ccccc2c1=O` displayed a solubility (kinetic) of over 24.3 µg/mL.
For `CCOc1cc(/C=C2\SC(N)=NC2=O)ccc1O` the value was 22.5 µg/mL (≈ 85.1 µM); for `COCCCNC(=S)N1CCC(NC(=O)c2ccco2)CC1`, over 48.8 µg/mL; for `O=C(Nc1ccc(OCC(F)(F)C(F)F)cc1)c1ccncc1`, over 49.2 µg/mL.
Consider `Cc1ccc(Cl)c(OCC(=O)OCC(=O)c2ccc[nH]2)c1`, for which the kinetic solubility turned out to be 8.7 µg/mL (≈ 28.3 µM).
Consider `CC(C)N1CCN(Cc2ccsc2)CC1CCO` (centres undefined), for which the kinetic solubility was over 40.3 µg/mL.
`COc1ccc2c(c1)[nH]c1c(=O)n(CCN3CCOCC3)cnc12` showed a solubility (kinetic) of 47.6 µg/mL (≈ 145 µM).
`N#Cc1ccc(N2CCCNCC2)nc1` had a kinetic solubility of over 30.3 µg/mL.
Under `CC1(C)C(=O)Nc2ccccc2N1C(=O)COC(=O)c1cccc(O)c1` stands 20.3 µg/mL (≈ 57.3 µM); under `COc1c(Cl)ccc(Cl)c1C(=O)NC(=S)N1CCOCC1`, over 52.4 µg/mL; under `COc1ccc(-c2csc(NC(=O)Nc3ccccc3)n2)cc1`, 1.8 µg/mL (≈ 5.53 µM).
The compound `CCN(C(=O)Cn1c(=O)oc2ccccc21)c1ccc(C)c(C)c1` registered a solubility (kinetic) of 11.7 µg/mL (≈ 36.1 µM).
Take `O=C(NCc1ccc(F)cc1F)c1cc(COc2c(F)cccc2F)on1`: the kinetic solubility was 1.5 µg/mL (≈ 3.94 µM).
The compound `CC(=O)c1cn(C)c(=O)c2ccccc12` had a solubility (kinetic) of over 30.2 µg/mL.
`CC1(C)C(=O)N(c2ccccc2F)C(=O)c2ccccc21`: the solubility (kinetic) worked out at 37.2 µg/mL (≈ 131 µM).
For `COc1cc(/C=C2\SC(=O)NC2=O)ccc1OCC(=O)N1CCOCC1` the value was over 56.8 µg/mL; for `CCOC(=O)c1c(C)n(Cc2ccccc2)c2ccc(O)cc12`, under 0.7 µg/mL; for `Cc1ccnc(NC(=O)Cc2c(F)cccc2Cl)c1`, over 41.8 µg/mL.
For `CN1CCN(CCCN2c3ccccc3Sc3ccc(Cl)cc32)CC1.O=S(=O)(O)CCS(=O)(=O)O` the value was 73.3 µg/mL.
For `O=C(O)C(=O)O.c1ccc2c(c1)CCN(C1CCCCC1)C2` the value was 44 µg/mL; for `CC1CN(C(=O)COC(=O)c2ccc3ncsc3c2)CC(C)O1` (centres undefined), over 50.2 µg/mL; for `Cc1ccccc1C(=O)Nc1scc(-c2ccc(Br)cc2)c1C(=O)O`, 3.5 µg/mL (≈ 8.41 µM).
Take `Cc1ccc(S(=O)(=O)N2CCC3(CC2)OCCO3)cc1`: the solubility (kinetic) was over 44.6 µg/mL.
Under `CCc1ccccc1NC(=O)CCN1C(=O)C2CC=CCC2C1=O` (centres undefined) stands over 49 µg/mL; under `O=C(NCc1ccccc1Cl)c1cc2ccccc2oc1=O`, under 0.7 µg/mL.
For `OCc1c(Cl)nc2ccccn12` the value was over 27.4 µg/mL; for `Cc1ccc(CN2C(=O)CNC2=S)cc1`, over 33 µg/mL.
Under `N#CCc1ccc(OC(=O)c2cnccc2C(F)(F)F)cc1` stands 13.6 µg/mL (≈ 44.4 µM); under `CC(=O)c1cccc(NS(=O)(=O)N2CCOCC2)c1`, over 42.6 µg/mL.
With `Nc1nc(C(F)(F)F)cc(=O)[nH]1`, the solubility (kinetic) turned out to be 22.8 µg/mL (≈ 127 µM).
Under `COc1ccc(NC(=O)CSc2nc3ccc(OC)cc3[nH]2)cc1` stands 6 µg/mL (≈ 17.5 µM).
Under `CC1C(=O)C(C)C(c2ccc(O)cc2)NC1c1ccc(O)cc1` (centres undefined) stands 45.4 µg/mL (≈ 146 µM).
`COc1ccc(-c2cc(C(=O)N3CCCC3)c3ccccc3n2)cc1OC`: the kinetic solubility was determined as 53.9 µg/mL (≈ 149 µM).
For `Cc1ccc(-c2csc3nc[nH]c(=O)c23)cc1` the value was 19.5 µg/mL (≈ 80.5 µM); for `COCCCn1c(=O)c2ccccc2n2c(=S)[nH]nc12`, over 43.6 µg/mL; for `CCOC(=O)c1c(NC(C)=O)sc(C(=O)NC2CCCC2)c1C`, 1 µg/mL (≈ 2.95 µM).
For `CCCCN(C1CCS(=O)(=O)C1)S(=O)(=O)c1ccc(C(C)C)cc1` (centres undefined) the value was 1.9 µg/mL (≈ 5.09 µM); for `CC(Cc1ccccc1)N1Cc2ccccc2C1` (centres undefined), 35.3 µg/mL (≈ 149 µM).
Under `CC#CC(=O)N1CCCC(C(=O)c2ccc(SC)cc2)C1` (centres undefined) stands over 45.2 µg/mL; under `CCCOc1cc(C)c(S(=O)(=O)NCc2cccs2)cc1C`, 9.1 µg/mL (≈ 26.8 µM); under `COc1ccc(C(=O)Nc2ccc(C3(C#N)CCCC3)cc2)cc1OC`, under 0.4 µg/mL.
`O=C(CN1C(=O)C(=O)N(Cc2ccco2)C1=O)Nc1ccccc1` showed a solubility (kinetic) of over 49.1 µg/mL.
For `CC(=O)NCCc1nc2cc(NC(=O)c3ccc(F)cc3)ccc2n1C` the value was over 53.2 µg/mL.
`COc1ccccc1CCNC(=O)c1nccnc1C(=O)O` registered a solubility (kinetic) of over 45.2 µg/mL.
For `CN(Cc1ccccc1N1CCCC1)C(=O)c1cc2ccccc2o1` the value was 11.1 µg/mL (≈ 33.2 µM).
For `CCC1CCCCN1Cc1c(O)ccc2c(=O)c(-c3ccccc3)coc12` (centres undefined) the value was 50.1 µg/mL (≈ 138 µM); for `CCOc1cccc2cc(C(=O)NCc3ccccc3)c(=N)oc12`, 2.1 µg/mL (≈ 6.51 µM).
For `O=C(NC(=S)Nc1cc([N+](=O)[O-])ccc1O)c1cccnc1` the value was 13.5 µg/mL (≈ 42.4 µM); for `CSCC(=O)N1CCCC(CO)(CCCc2ccccc2)C1` (centres undefined), over 48.2 µg/mL; for `COc1ccc(Cl)cc1NC(=O)C(OC)c1ccccc1` (centres undefined), 3.9 µg/mL (≈ 12.8 µM).
`COc1ccc(Cl)cc1NC(=O)CN1C(=O)NC(Cc2c[nH]c3ccccc23)C1=O` (centres undefined) showed a solubility (kinetic) of 6.7 µg/mL (≈ 15.7 µM).
For `Cc1ccc(S(=O)(=O)NC2=NCN(C)CN2)cc1[N+](=O)[O-]` the value was over 47 µg/mL; for `COCCNC(=O)Cn1cc(C(=O)c2ccccc2F)c2ccccc21`, 17.9 µg/mL (≈ 50.5 µM).
For `Cc1ccc(C)c(N2CCN(CCCc3ccccc3)CC2)c1` the value was 4.6 µg/mL (≈ 14.9 µM); for `Cc1nc2ccc(NS(=O)(=O)c3c(F)cccc3F)cc2s1`, over 51.1 µg/mL; for `COc1ncnc2c1oc1nc(C)c3c(c12)CC(C)(C)OC3`, 4.9 µg/mL (≈ 16.4 µM).
For `Cc1ccc(-c2nc3ncccc3o2)cc1NC(=O)c1ccc([N+](=O)[O-])o1` the value was 1.7 µg/mL (≈ 4.67 µM); for `O=C(CCCc1ccccc1)Nc1ccccc1C(F)(F)F`, 5.1 µg/mL (≈ 16.6 µM).
`Cc1nnc(SCC(=O)Nc2cccc(N)c2)n1-c1ccccc1` had a kinetic solubility of over 50.9 µg/mL.
Under `CCOc1ccccc1NC(=O)Nc1cccc(S(N)(=O)=O)c1` stands over 50.3 µg/mL; under `COc1cc(C#N)c(NC(=O)CN2CCC(C(N)=O)CC2)cc1OC`, over 52 µg/mL; under `CC1CCCN(C2(O)C(=O)Nc3ccc(Cl)cc32)C1` (centres undefined), over 42.1 µg/mL.
Under `O=C(O)c1cccnc1SCc1ccc([N+](=O)[O-])cc1` stands over 43.5 µg/mL.
Under `O=C1NS(=O)c2cc([N+](=O)[O-])cc([N+](=O)[O-])c21` (centres undefined) stands over 38.6 µg/mL; under `O=C(CSc1cccc[n+]1[O-])c1cccs1`, 28 µg/mL (≈ 111 µM); under `COC(=O)CCCN=C1SCCN1Cc1ccccc1`, over 43.9 µg/mL.
The compound `c1ccc2[nH]c(-c3ccc4c(c3)OCO4)nc2c1` displayed a solubility (kinetic) of 34.4 µg/mL (≈ 144 µM).
For `COc1ccccc1OCC#CCSc1ncccn1` the value was over 43 µg/mL; for `O=C(O)c1ccc(NCCc2ccc(Cl)cc2)c([N+](=O)[O-])c1`, 44.6 µg/mL (≈ 139 µM).
